In ChEMBL document CHEMBL1201862, “PubChem BioAssay data set” (2004):
Counter-ions that a name gives are not always drawn.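 Tested at 5 concentrations; 48 h exposure; 96-well plates; endpoints linearly interpolated, else capped at highest concentration. GI50 is the concentration that inhibits growth by half.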 Active and inactive are the calls of the source. No stated cut-off is given here; in the data, active = GI50 up to about 1.1 µM and inactive = higher.

Experiments:
Assay in all cases: inhibition of tumour cell growth, NCI panel, 48 h
OVCAR-4 = system: OVCAR-4
HL-60 = system: HL-60
UO-31 = system: UO-31
A498 = system: A498
K562 = system: K562
HCT-15 = system: HCT-15
OVCAR-8 = system: OVCAR-8
SK-MEL-2 = system: SK-MEL-2
HCT-116 = system: HCT-116
KM12 = system: KM12
OVCAR-3 = system: OVCAR-3
SW-620 = system: SW-620
SR = system: SR
OVCAR-5 = system: OVCAR-5
IGROV-1 = system: IGROV-1
Malme-3M = system: Malme-3M
SK-MEL-5 = system: SK-MEL-5
NCI-H522 = system: NCI-H522
SF-539 = system: SF-539

| SMILES | GI50 (OVCAR-4) | GI50 (HL-60) | GI50 (UO-31) | GI50 (A498) | GI50 (K562) | GI50 (HCT-15) | GI50 (OVCAR-8) | GI50 (SK-MEL-2) | GI50 (HCT-116) | GI50 (KM12) | GI50 (OVCAR-3) | GI50 (SW-620) | GI50 (SR) | GI50 (OVCAR-5) | GI50 (IGROV-1) | GI50 (Malme-3M) | GI50 (SK-MEL-5) | GI50 (NCI-H522) | GI50 (SF-539) |
| --- | --- | --- | --- | --- | --- | --- | --- | --- | --- | --- | --- | --- | --- | --- | --- | --- | --- | --- | --- |
| O=C(Nc1ccc2nc(-c3ccccc3)cn2c1)Oc1ccccc1 | 78.3 µM (inactive) | 30.9 µM (inactive) | > 100 µM (inactive) | 71.3 µM (inactive) | 34.6 µM (inactive) | 45.1 µM | 59.7 µM (inactive) | 46.7 µM (inactive) | 45.9 µM (inactive) | 24.9 µM (inactive) | 38.6 µM (inactive) | 48.6 µM (inactive) | 19 µM (inactive) | 78.2 µM (inactive) | 57.3 µM (inactive) | 98.2 µM (inactive) | 59.7 µM (inactive) | 20.2 µM (inactive) | – |
| NCCSC1(O)C(=O)c2ccccc2-c2ccccc21 (configuration not stated) | 0.207 µM (active) | 1.09 µM (active) | 1.47 µM (inactive) | – | 0.382 µM (active) | 1.49 µM | 0.262 µM (active) | 1.61 µM (inactive) | 0.176 µM (active) | 1.63 µM (inactive) | < 0.01 µM (active) | 1.52 µM (inactive) | 0.0472 µM (active) | 1.53 µM (inactive) | 1.8 µM (inactive) | 1 µM (active) | 0.265 µM (active) | 1.55 µM (inactive) | 1.15 µM (inactive) |
| COc1cc(C#CC(=O)OC/C=C/c2ccc3c(c2)OCO3)cc(OC)c1OC | 59.7 µM (inactive) | 36.5 µM (inactive) | 15.6 µM (inactive) | 5.53 µM (inactive) | 28.9 µM (inactive) | 24.9 µM | 29.1 µM (inactive) | 10 µM (inactive) | 22.7 µM (inactive) | 30.4 µM (inactive) | 26.5 µM (inactive) | 27.5 µM (inactive) | 16.7 µM (inactive) | 35.6 µM (inactive) | – | 20.7 µM (inactive) | 17.5 µM (inactive) | – | 20.7 µM (inactive) |
| CC(C)(C)OC(=O)NC(Cc1ccccc1)NC(=O)NC(=O)OCc1ccccc1 (configuration not stated) | – | – | > 100 µM (inactive) | – | 74.5 µM (inactive) | > 100 µM | 55.5 µM (inactive) | 34.3 µM (inactive) | 19.2 µM (inactive) | 59.8 µM (inactive) | 42.2 µM (inactive) | 59.6 µM (inactive) | > 100 µM (inactive) | > 100 µM (inactive) | > 100 µM (inactive) | 41.8 µM (inactive) | 26.7 µM (inactive) | 15.6 µM (inactive) | 25.7 µM (inactive) |
| CCN(C(=S)N[C@@H](Cc1ccccc1)C(=O)N[C@@H](CC(C)C)C(=O)OC)c1ccccc1 | > 100 µM (inactive) | – | > 100 µM (inactive) | – | 43.2 µM (inactive) | 49 µM | > 100 µM (inactive) | > 100 µM (inactive) | 75 µM (inactive) | 50.9 µM (inactive) | > 100 µM (inactive) | 50.6 µM (inactive) | 24 µM (inactive) | > 100 µM (inactive) | 50.4 µM (inactive) | > 100 µM (inactive) | > 100 µM (inactive) | 55.6 µM (inactive) | > 100 µM (inactive) |
| Cc1ccc(/C=C/C(=N/NC(=O)N/N=C(/C=C/c2ccc(C)cc2)C(C)C)C(C)C)cc1 | 1.5 µM (inactive) | 4.42 µM (inactive) | > 10 µM (inactive) | – | > 10 µM (inactive) | > 10 µM | > 10 µM (inactive) | > 10 µM (inactive) | 5.24 µM (inactive) | > 10 µM (inactive) | 3.93 µM (inactive) | > 10 µM (inactive) | > 10 µM (inactive) | > 10 µM (inactive) | – | > 10 µM (inactive) | – | 9.12 µM (inactive) | – |
| N=C1C=C(N)C(=O)c2[nH]c(=O)ccc21 | 1.38 µM (inactive) | 2.63 µM (inactive) | – | 2.95 µM (inactive) | 1.91 µM (inactive) | 2.06 µM | – | 2.36 µM (inactive) | 1.1 µM (active) | 1.82 µM (inactive) | 1.54 µM (inactive) | 2.88 µM (inactive) | 3.44 µM (inactive) | 2.5 µM (inactive) | 1.96 µM (inactive) | 2.39 µM (inactive) | 1.8 µM (inactive) | 1.56 µM (inactive) | 2.21 µM (inactive) |
| CC1(C)O[C@@H](CP(c2cccc3ccccc23)c2cccc3ccccc23)[C@H](CP(c2cccc3ccccc23)c2cccc3ccccc23)O1 | > 100 µM (inactive) | – | > 100 µM (inactive) | – | > 100 µM (inactive) | > 100 µM | > 100 µM (inactive) | > 100 µM (inactive) | > 100 µM (inactive) | > 100 µM (inactive) | > 100 µM (inactive) | > 100 µM (inactive) | > 100 µM (inactive) | > 100 µM (inactive) | > 100 µM (inactive) | – | > 100 µM (inactive) | > 100 µM (inactive) | – |
| CN(C)C(n1cc2c(c1)-c1ccc(Cl)cc1C(c1ccccc1F)=NC2)n1cc2c(c1)-c1ccc(Cl)cc1C(c1ccccc1F)=NC2 | > 100 µM (inactive) | 51.3 µM (inactive) | 97.3 µM (inactive) | 8.17 µM (inactive) | > 100 µM (inactive) | > 100 µM | > 100 µM (inactive) | > 100 µM (inactive) | 61.1 µM (inactive) | – | 87.5 µM (inactive) | > 100 µM (inactive) | > 100 µM (inactive) | 20.2 µM (inactive) | > 100 µM (inactive) | > 100 µM (inactive) | > 100 µM (inactive) | 81.8 µM (inactive) | > 100 µM (inactive) |
| O=c1oc2ccc3ccccc3c2cc1-c1cn2ccccc2n1 | – | > 100 µM (inactive) | 20 µM (inactive) | – | > 100 µM (inactive) | > 100 µM | 51.3 µM (inactive) | > 100 µM (inactive) | 14.9 µM (inactive) | 57.7 µM (inactive) | > 100 µM (inactive) | > 100 µM (inactive) | > 100 µM (inactive) | – | > 100 µM (inactive) | – | > 100 µM (inactive) | 26.3 µM (inactive) | 25.9 µM (inactive) |
| COC(=O)[C@H]1ON2O[C@@H](O[C@H]3CCCC[C@@H]3C(C)(C)c3ccccc3)C[C@@H]3CC[C@H]1[C@@]32C | – | > 100 µM (inactive) | > 100 µM (inactive) | > 100 µM (inactive) | > 100 µM (inactive) | > 100 µM | > 100 µM (inactive) | – | > 100 µM (inactive) | > 100 µM (inactive) | > 100 µM (inactive) | > 100 µM (inactive) | > 100 µM (inactive) | > 100 µM (inactive) | > 100 µM (inactive) | – | > 100 µM (inactive) | > 100 µM (inactive) | – |
| Cc1ccc2c(c1)C(O)(c1ccccc1)CCS2 (configuration not stated) | 43.4 µM (inactive) | 28.2 µM (inactive) | 19.2 µM (inactive) | – | 20.2 µM (inactive) | 19.5 µM | 36.7 µM (inactive) | 25.2 µM (inactive) | 20.8 µM (inactive) | 22.6 µM (inactive) | 21.3 µM (inactive) | 31 µM (inactive) | 18.3 µM (inactive) | 27.6 µM (inactive) | 20.6 µM (inactive) | 32.9 µM (inactive) | 29 µM (inactive) | 19.7 µM (inactive) | 20.2 µM (inactive) |
| O=[N+]([O-])C(C(Cl)=C(Cl)Cl)=C(N1CCCCC1)N1CCCCC1 | > 100 µM (inactive) | 33.4 µM (inactive) | 22.1 µM (inactive) | > 100 µM (inactive) | 90.2 µM (inactive) | > 100 µM | > 100 µM (inactive) | – | > 100 µM (inactive) | > 100 µM (inactive) | 62.2 µM (inactive) | > 100 µM (inactive) | 33.8 µM (inactive) | > 100 µM (inactive) | 69.5 µM (inactive) | 39.5 µM (inactive) | > 100 µM (inactive) | – | > 100 µM (inactive) |
| Cc1ccc(S(=O)(=O)Nn2c(S)c(C#N)c(-c3ccc(N(C)C)cc3)c(C#N)c2=O)cc1 | 17.1 µM (inactive) | 20.7 µM (inactive) | 16.9 µM (inactive) | 17.3 µM (inactive) | 38.8 µM (inactive) | 20.3 µM | 15.9 µM (inactive) | – | 28.2 µM (inactive) | 24.6 µM (inactive) | – | 18.1 µM (inactive) | 23.7 µM (inactive) | 35 µM (inactive) | 10.8 µM (inactive) | 18.7 µM (inactive) | 17.7 µM (inactive) | 14.5 µM (inactive) | 19 µM (inactive) |
| C=C1C(=O)O[C@@H]2[C@H]1CC[C@H](C)[C@]1(O)CCC(=O)[C@@]21C [CORONOPILIN] | > 10 µM (inactive) | 3.66 µM (inactive) | 0.0094 µM (active) | – | > 10 µM (inactive) | > 10 µM | > 10 µM (inactive) | > 10 µM (inactive) | > 10 µM (inactive) | > 10 µM (inactive) | > 10 µM (inactive) | > 10 µM (inactive) | 5.73 µM (inactive) | – | > 10 µM (inactive) | > 10 µM (inactive) | > 10 µM (inactive) | – | > 10 µM (inactive) |
| CN[C@@H]1[C@H](O)[C@H](NC)[C@H]2O[C@@]3(O)C(=O)C[C@@H](C)O[C@H]3O[C@@H]2[C@H]1O [SPECTINOMYCIN SULFATE] | > 100 µM (inactive) | > 100 µM (inactive) | > 100 µM (inactive) | > 100 µM (inactive) | > 100 µM (inactive) | > 100 µM | > 100 µM (inactive) | – | > 100 µM (inactive) | > 100 µM (inactive) | > 100 µM (inactive) | > 100 µM (inactive) | > 100 µM (inactive) | > 100 µM (inactive) | > 100 µM (inactive) | > 100 µM (inactive) | > 100 µM (inactive) | > 100 µM (inactive) | > 100 µM (inactive) |
